Like-named read-outs stand apart in the source and are kept apart here.
Experiments:
[1] = see Bioorg. and Med. Chem. Lett., 8, 3107-3110 (1998); cited from earlier work
physchem = conditions: 100 mM phosphate buffer in a 96 well plate, pH 8
Experimental: A 96 well plate was prepared with each well containing 100 microliters of 100 mM phosphate buffer at pH values ranging from 8.0 to 2.5 in 0.5 unit increments. […] A set of 10× diluted wells were also prepared to eliminate artifacts due to self-quenching of the fluorophore at high concentrations. The 10× dilutions were prepared by diluting the 1 mg/mL solution to 0.1 mg/mL in DMSO, and then adding 10 microliters of this solution to 100 microliters of 100 mM phosphate buffer in each of the wells.
The absorption spectra from 250 nanometers (nm) to 500 nm were recorded using a SPECTRAMAX M5 fluorescence plate reader (available from Molecular Devices of Sunnyvale Calif.) for each pH value.
Emission spectra at wavelengths from 410 nm to 700 nm were also recorded on the SPECTRAMAX M5 fluorescence plate reader at an excitation wavelength of 400 nm over the range of pH values in the plate. […]
The absorption at 400 nm and emission at 450 nm over the range of pH values were recorded on a SPECTRAMAX M5 fluorescence plate reader. […]
The absorption spectra from 300 nanometers (nm) to 700 nm were recorded for the 10× diluted wells using a SPECTRAMAX M5 fluorescence plate reader (available from Molecular Devices of Sunnyvale Calif.) for each pH value. […]

[2] = system: Escherichia coli (ATCC 29425); test: Detection of microbial colonies on bacterial culture plates by fluorescence imaging; type: cell-based; conditions: for time after which colonies were apparent in the images: Plates 8-1 and C-1, 200 nM, with MX-180 particles, about 20° C. to 27° C.; for mean fluorescence intensity of colonies over time: Plates 8-1 and C-1, averaged across 6 colonies, 30 seconds fluorescent illumination
Experimental: A mixture of 50 grams of xanthan gum powder and 50 grams of locust bean gum powder was placed in a 500 mL bottle and shaken manually for about 5 minutes. A cover film was prepared by sprinkling the mixture onto the adhesive of a pressure-sensitive adhesive coated sheet that is commercially available under the trade designation 9795R ADVANCED SEALING TAPE from 3M Company in St. Paul Minn. The adhesive coated sheet was tilted to remove excess powder. The coating weight of the gums was approximately 85 milligrams per 24 square inches (i.e, 0.55 milligrams per square centimeter).
A growth medium mixture was prepared by mixing 22.8 parts of pancreatic digest of casein, 15.9 parts of yeast extract, 45.5 parts of sodium pyruvate, 4.1 parts of dextrose, 9.0 parts of dibasic potassium phosphate, and 2.8 parts of monobasic potassium phosphate. A growth medium broth was prepared by mixing 500 mL of deionized water with 14.78 grams of the growth medium mixture in a beaker using an air motor mixer followed by adding 5 grams of locust bean gum in small increments, and mixing for several minutes. The beaker was covered with foil and the mixture was heated to 80° C., mixed for about 6 minutes, and then allowed to cool for about ten minutes while mixing without heat. The broth was then poured into a sterilized beaker, covered with a plastic bag and refrigerated. The cooled broth was stirred carefully with a spatula to avoid forming air bubbles and then knife coated onto a 24.4 cm wide sheet of 4 mil thick polyethylene terephthalate film that is commercially available under the trade designation MELINEX 453 from DuPont Teijin Films in Hopewell Va. The broth coated film was dried in an oven set at a temperature of 210° C. for about 10 minutes. The dried coating weight was about 1 mg per square centimeter.
A 20.3 centimeter (cm) wide sheet of 4 mil (a mil is equal to 0.001 inches) thick closed cell polystyrene foam (commercially available from American Fuji Seal, Inc. of Bardstown, Ky.) was laminated to a pressure-sensitive adhesive transfer tape on a release liner. The specific transfer tape used has an acrylic pressure-sensitive adhesive and is commercially available from 3M Company (Saint Paul, Minn.) under the trade designation 3M […] ADHESIVE 927. Circular discs measuring 5 cm in diameter were die-cut and removed from the laminate, forming circular openings centered within a 7.6 cm square from one end of 7.6 cm by 10.16 cm rectangle. The liner was removed and the adhesive-coated surface of the polystyrene foam was adhered to the broth coated film to provide a base member having a broth-coated self-supporting substrate and a hydrophobic spacer element (i.e., “foam dam”) adhered to the broth-coated surface of the supporting substrate. Rectangular plates measuring 7.6 cm by 10.16 cm were cut from the laminate, with the circular openings centered within a 7.6 cm square on one end of the 10.16 cm length. The cover film was attached to the base member with the powder coated side facing the foam dam with a double sided pressure-sensitive adhesive tape to form a culture plate.
For Example 8, an indicator solution was prepared by dissolving FTU-gal from Example 6 in DMSO at a 50 mM (millimolar) concentration (Indicator 1). The solution was further diluted 20-fold to provide a 2.5 mM solution (Indicator 2).
For Comparative Example C1, indicator solutions were prepared by dissolving TU-gal in DMSO at a 20 mM concentration (Indicator 3). […]

β-D-galactosidase = test: Emission of fluorogenic galactoside at pH 2.5 to 8.0 in the presence and absence of β-D-galactosidase; type: biochemical; conditions: FIG. 6; emission 495 nm, excitation 430 nm, pH 5 to 7, with β-D-galactosidase; about two-thirds of sample fluorinated
Experimental: Absorbance and emission spectra for the first fraction of FTU-gal was recorded at pH 2.5 to 8.0 in the presence and absence of β-D-galactosidase, and then compared to spectra of TU-gal (prepared according to U.S. Pat. No. 6,566,508 (Bentsen et al.) under the same conditions.
About two-thirds of the sample tested was fluorinated.

Row | Compound | pKa (physchem) | time after which colonies were apparent in the images [2] [h] | mean fluorescence intensity of colonies over time [2] | also measured
1 | Cc1cc(=O)oc2c(F)c(O)c(F)cc12 [6,8-difluoro-4-methyl-7-hydroxycoumarin] | – | – | – | pKa [1]: 4.2
2 | CCOC(=O)c1cc2cc(F)c(O)cc2oc1=O [6-FEHC, 6-fluoro-3-ethylcarboxylate-7-hydroxycoumarin] | ~4.5 | – | – | –
3 | CCOC(=O)c1cc2ccc(O)cc2oc1=O [EHC, 3-ethylcarboxylate-7-hydroxycoumarin, reference compound] | ~6.5 | – | – | –
4 | O=c1oc2cc(O[C@@H]3O[C@H](CO)[C@H](O)[C@H](O)[C@H]3O)ccc2cc1-c1cccs1 [TU-gal, 3-thienylumbelliferone-pyanogalactoside, reference compound] | – | 14 | tended to plateau over time | –
5 | fluorinated 3-thienylumbelliferone-pyranogalactoside [FTU-gal] | – | 14 | continued to increase | enhancement in intensity versus TU that is not fluorinated (β-D-galactosidase): more than 2 fold; signal to noise (background) ratio over time ([2]; Plates 8-1 and C-1, six colonies and six background spots): always higher
